Reference: patent publication US20070203212A1, “METHOD OF TREATING OSTEOARTHRITIS” (WARNER-LAMBERT COMPANY, priority 2002, published 2007)
Entries after “also recorded” stand apart in the source; their conditions may differ.

Tests used:
[1] = system: prostaglandin-F2a (PGF2a) expression; assay: PGF2a expression from calcium ionophore-stimulated rat basophilic leukemia cells; assay type: cell-based
[2] = system: monoclonal antibody-induced arthritis; assay: Monoclonal antibody-induced arthritis (MAIA) mouse model, footpad and ankle swelling; assay type: in vivo; conditions: p<0.05 (FIG. 8)
Experimental: In a typical MAIA experiment, groups of four mice were injected intraperitoneally (“i.p.”) with 0.4 mL (BALB/c and DBA/1 strains) or 0.8 mL (C57BL/6, 129X1/SvJ, C3H/HeJ, and C3H/FeJ strains) with a 10 mg/mL solution of Arthrogen-CIA Monoclonal Antibody Blend (Chemicon International, Inc.). Two days later, the mice were injected i.p. with 0.2 mL of a 0.25 mg/mL solution of LPS (lipopolysaccharide form Escherichia coli (“E. coli”) strain 0111B4) in PBS. Footpad and ankle size was assessed using a Dyer Digital Caliper (#655-030-4916) on the day of mAb injection, and every two days following LPS injection.

[3] = system: monosodium iodoacetate (MIA)-induced osteoarthritis; assay: MIA rat model, chronic oral b.i.d. dosing: tibial plateau cartilage erosion analysis; assay type: in vivo; conditions: for Decreased Erosion Size (statistically significant decrease in size of area of joint erosion) / SDCES (Significant Decrease In Cartilage Erosion Severity), Ridit analysis: 28 days; for SDCES (Significant Decrease In Cartilage Erosion Severity), Ridit analysis: calcium salt
Experimental: In a particular experiment, monosodium iodoacetate (“MIA”) (1 mg/joint) was injected through the infrapatellar ligament of the right knee of anesthetized male, Wistar rats. The contralateral control knee was injected with 50 μL of physiologic saline. The change in hind paw weight distribution, as determined by use of an incapacitance tester, between the right (arthritic) and left (contralateral control) knees was utilized as an index of functional limitation in the arthritic knee. Limitations in joint function were determined on Days 7, 14, and 28 following induction of arthritis. Following sacrifice, erosion severity was determined on the tibial plateaus from the arthritic joint. Histological analysis was also conducted on these samples.
The ridit analysis was used to determine differences in overall erosion severity. This parameter takes into account both the erosion grade (0=no erosion, I=erosion extending into the superficial or middle layers, or II=deep layer erosion), and area (small, medium and large, quantified by dividing the area of the largest erosion in each score into thirds) simultaneously.
After administering CI-1027 b.i.d. for 4 weeks, the rats were euthanized by CO2 administration. The soft tissue was removed from the right (arthritic) leg, the joint was disarticulated, and the meniscus was carefully removed to expose the surface of the tibial plateau. The tibia was removed and placed in physiologic saline until erosion analysis was performed. Tibial plateau erosions were analyzed the same day as the sacrifice as follows. Each plateau was dipped in India ink for approximately 30 seconds to help define the erosions, rinsed in saline, and blotted on a paper towel. A stereomicroscope equipped with a digital camera was used to photograph each plateau. The tibial plateaus were photographed and graded separately by two ordinary skilled persons using the following system:
Grade I=erosion extending into the superficial or middle layers;
Grade II=deep layer erosion; no cartilage, sub-chondral bone exposed.
The photographs were transferred to a computer for image analysis using a Zeiss KS 300 Image Analysis System to determine the total erosion area for each grade, expressed in square millimeters (“mm^2”). A RIDIT analysis (see above) was used to determine differences in overall erosion severity. This analysis takes into account both the erosion grade and area (small, medium and large, quantified by dividing the area of the largest erosion in each score into thirds) simultaneously.

[4] = 30 mg/kg PO BID, dose-response experiment

Structure (SMILES): CC(C)(CCCCOCCCCC(C)(C)C(=O)[O-])C(=O)[O-].[Ca+2] [CI-1027, 6-(5-carboxy-5-methyl-hexyloxy)-2,2-dimethyl-hexanoic acid, calcium salt]
- inhibition of PGF2a expression [1]: does not inhibit
- change in mouse ankle joint and paw swelling ([2]; 100 mg/kg oral daily, Day 7): inhibits a change in mouse ankle joint and paw swelling
- change in mouse ankle joint and paw swelling ([2]; 200 mg/kg oral daily, Days 4, 7 and 9): inhibits a change in mouse ankle joint and paw swelling
- Decreased Erosion Size (statistically significant decrease in size of area of joint erosion) ([3]; 3 mg/kg PO BID): No
- SDCES (Significant Decrease In Cartilage Erosion Severity), Ridit analysis ([3]; 3 mg/kg PO BID): statistically significant inhibitory effect; also recorded: Yes^f
- Decreased Erosion Size (statistically significant decrease in size of area of joint erosion) ([3]; 10 mg/kg PO BID): Yes^c
- SDCES (Significant Decrease In Cartilage Erosion Severity), Ridit analysis ([3]; 10 mg/kg PO BID): significantly decrease cartilage erosion severity; also recorded: statistically significant inhibitory effect; also recorded: Yes^e
- decrease in total erosion area (regardless of grade) ([3]; 10 mg/kg PO b.i.d. 28 days, dose-response experiment (FIG. 5), statistically significant): 62.4%
- Decreased Erosion Size (statistically significant decrease in size of area of joint erosion) [3, 4]: No
- SDCES (Significant Decrease In Cartilage Erosion Severity), Ridit analysis [3, 4]: significantly decrease cartilage erosion severity; also recorded: significantly decreased the degree of structural damage to the cartilage; also recorded: statistically significant inhibitory effect; also recorded: Yes^d
- Decreased Erosion Size (statistically significant decrease in size of area of joint erosion) ([3]; 30 mg/kg PO BID, single-dose-level experiment): No
- SDCES (Significant Decrease In Cartilage Erosion Severity), Ridit analysis ([3]; 30 mg/kg PO BID, single-dose-level experiment (p = 0.100)): no statistically significant effect and No^g
- treated rats with no erosions ([3]; 30 mg/kg PO b.i.d. 28 days, first experiment, N=12): 5 of the 12
- decrease in total erosion area (regardless of grade) ([3]; 30 mg/kg PO b.i.d. 28 days, first experiment, not statistically significant (p=0.179)): 43%
